From publication PMC8426472 (Molecular Therapy. Methods & Clinical Development, 2021)

Tests used:
[1] = Brain tissue Mfp levels in rats; type: in vivo, rat; settings: 3 × 20 mg/kg i.p., t = 144 h
GS-GDNF vector = test: Striatal GDNF induction from AAV-5-GS-GDNF vector after Mfp application; type: in vivo, rat
[2] = cited from earlier work
[3] = cited from earlier work; remark: listed apart in the source
[4] = Plasma Mfp levels in cynomolgus monkeys; type: in vivo, cynomolgus macaques (Macaca fascicularis)
[5] = cited from earlier work; remark: listed apart in the source
ORM1F2 = settings: cited from earlier work
[6] = Plasma Mfp levels in hAAG-expressing; type: in vivo, rat
ORM1F1 = settings: cited from earlier work
[7] = Plasma Mfp levels in rats; type: in vivo, rat
[8] = Brain Mfp levels in cynomolgus monkeys; type: in vivo, cynomolgus macaques (Macaca fascicularis); settings: monkey #1 versus monkeys #2 and #3, repeated oral Rtv 60 mg/kg + Mfp 100 mg/kg
[9] = test system: ORM2-derived AAG variants; settings: cited from earlier work
[10] = cited from earlier work; remark: listed apart in the source
ORM1S = settings: cited from earlier work
[11] = cited from earlier work; remark: listed apart in the source

CC#C[C@]1(O)CC[C@H]2[C@@H]3CCC4=CC(=O)CCC4=C3[C@@H](c3ccc(N(C)C)cc3)C[C@@]21C [Mfp, mifepristone]
Mfp levels in brain tissue, native vs hAAG-expressing animals [1]: equal
effect of hAAG on GS-GDNF activation at lower dosage (GS-GDNF vector; 3 × 5 mg/kg Mfp i.p., hAAG-expressing vs native rats): no negative effect
striatal GDNF levels in hAAG-expressing vs native animals (GS-GDNF vector; 3 × 20 mg/kg Mfp i.p.): similar
induced GDNF levels in aged (15 months) as compared to young (2 months) animals (GS-GDNF vector; female and male rats, 3 × 20 mg/kg Mfp i.p.): 7–8 times
striatal GDNF level, only Mfp, females (GS-GDNF vector; female rats, 3 x 5 mg/kg Mfp i.p., no Rtv): about 350 pg/mg
striatal GDNF level without Rtv co-application (GS-GDNF vector; female rats, 3 x 20 mg/kg Mfp i.p.): about 2,000 pg/mg tissue
striatal GDNF level after co-application of Rtv (GS-GDNF vector; female rats, 3 x 20 mg/kg Mfp i.p., Rtv 30 mg/kg i.p. or orally): about 4,000 pg/mg tissue
GDNF levels obtained with different solvent/carrier (GS-GDNF vector; female rats, oral 3 x 50 mg/kg pure substance in EtOH, sesame oil or ASV): very similar
striatal GDNF level, Mfp + Rtv (GS-GDNF vector; male and female rats, 3 x 5 mg/kg Mfp i.p. + Rtv 30 mg/kg i.p.): about 4,000 pg/mg tissue
striatal GDNF level, only Mfp, males (GS-GDNF vector; male rats, 3 x 5 mg/kg Mfp i.p., no Rtv): about 100 pg/mg
bioavailability in monkeys [2]: 15%
bioavailability in humans [3]: 40%
clearance in human [3]: 0.04 L/h/kg body weight
plasma half-life (T1/2) in human [3]: 30 h
peak plasma Mfp level without Rtv ([4]; male cynomolgus monkeys, single oral 50 mg/kg Mfp): 55 ng/mL
peak plasma Mfp level with Rtv co-application ([4]; male cynomolgus monkeys, single oral 50 mg/kg Mfp + 30 mg/kg Rtv): 150 ng/mL
AUC ([4]; male, cynomolgus monkey, plasma, po, 50 mg/kg): 655 ng·h/mL
plasma Mfp levels on all 3 days ([4]; monkeys #2 and #3, oral Mfp 100 mg/kg + Rtv 60 mg/kg on 3 consecutive days): exceeding 500 ng/mL
bioavailability in rats [5]: 40%
clearance in rats [5]: 2.7 L/h/kg body weight
plasma half-life (T1/2) in rats [5]: 4 h
binding of Mfp by ORM1F2 (ORM1F2): only low affinity
plasma Mfp levels in hAAG-expressing vs native animals at 50 h and 72 h ([6]; 3 × 20 mg/kg Mfp i.p.): significantly elevated
plasma Mfp level at 48 h, hAAG-expressing rats ([6]; single oral dose 50 mg/kg): still at maximum level
plasma Mfp level at 72 h, hAAG-expressing rats ([6]; single oral dose 50 mg/kg): about one-third of maximum levels
binding of Mfp by ORM1F1 (ORM1F1): high affinity
AUC ([7]; female, Wistar, rat, plasma, ip, AUC for plasma Mfp, − Rtv, female rats, 3 x 5 mg/kg Mfp i.p., without Rtv): 8200 ng·h/mL
drop of plasma Mfp levels at 48 h, native rats ([7]; native rats, single oral dose 50 mg/kg): over 80%
peak plasma levels ([7]; rats, 3 × 5 mg/kg Mfp i.p.): about 150 ng/mL
peak plasma levels, corresponding molar concentration ([7]; rats, 3 × 5 mg/kg Mfp i.p.): about 0.3 μM
difference in brain Mfp levels after the same dosage [8]: 6- to 7 fold
binding of Mfp by ORM2-derived AAG variants [9]: only weakly
solubility in water [10]: very low
binding of Mfp by ORM1S (ORM1S): high affinity

CC(C)c1nc(CN(C)C(=O)N[C@H](C(=O)N[C@@H](Cc2ccccc2)C[C@H](O)[C@H](Cc2ccccc2)NC(=O)OCc2cncs2)C(C)C)cs1 [Rtv, ritonavir]
boost of GDNF induction by Rtv, female rats (GS-GDNF vector; female rats, Rtv 30 mg/kg i.p. + 3 x 5 mg/kg Mfp i.p.): about 10 fold
boost of GDNF induction by Rtv, male rats (GS-GDNF vector; male rats, Rtv 30 mg/kg i.p. + 3 x 5 mg/kg Mfp i.p.): about 40 fold
metabolic effects: insulin resistance [11]: moderate increase
